This is an account of results in US20260217706A1, “HETEROCYCLIC COMPOUNDS, PREPARATION METHOD THEREFOR AND USE THEREOF” (GUANGZHOU YUFAN NANTU BIOTECHNOLOGIES CO., LTD, priority 2023, published 2026).

A value given as a limit tells only on which side of the number the result lay.

Test [1] deals with anti-CD3 activated human PBMCs. The test can be described thus: Effect of compounds on the level of IL-2 secretion by anti-CD3 activated human PBMCs (IL-2 ELISA). In kind it is cell-based. Particulars: compound concentration at which fold change in IL-2 = 5; hPBMCs, CD3 antibody 2 μg/mL, 48 h, compound from 3 μM. Here is the method: 2. Inoculate the resuspended cells into a 96-well cell culture plate at 200 ul/well of cell suspension, and incubate in a 37° C. cell incubator for 1 h;
3. Adjust the compound concentration with DMSO, starting at a final concentration of 3 μM, and perform a 3-fold dilution sequentially for 10 concentration gradients, with an additional DMSO control well set up; and
4. Adjust the CD3 antibody to an appropriate concentration to achieve a final concentration of 2 μg/mL, mix thoroughly, and incubate in a 37° C. cell incubator for 48h.
5. After 48 h, centrifuge at 1500 rpm for 5 min to collect the supernatant of the culture medium for the human IL-2 ELISA test.
The OD values obtained from the ELISA test are converted into the fold change (FC) in IL-2 concentration. […] The EC50 is calculated using GraphPad Prism. When the fold change=5, the corresponding compound concentration is CFC=5 (in nM).
A general note: An ELISA detects its analyte on a solid surface through an enzyme-linked reagent.

Another test concerns the target CBL-B protein (Homo sapiens, UniProt Q13191). As to the kind of experiment: CBL-B binding experiment (Streptavidin-Tb cryptate / Ligand L1 displacement). Particulars: 8 nM CBL-B protein, 25° C., 60 minutes; Ki=Relative IC50/2. In outline:
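Compounds in a 10-point DMSO series met 8 nM CBL-B protein in HEPES pH 7.5/NaCl/Triton/TCEP/BSA buffer at 25° C. for 60 min. A further 60 min at room temperature preceded the luminescence read, normalised to no-protein and DMSO wells. Ki was taken as relative IC50 divided by 2.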

CBL-B protein, sequence (Q13191 whole entry): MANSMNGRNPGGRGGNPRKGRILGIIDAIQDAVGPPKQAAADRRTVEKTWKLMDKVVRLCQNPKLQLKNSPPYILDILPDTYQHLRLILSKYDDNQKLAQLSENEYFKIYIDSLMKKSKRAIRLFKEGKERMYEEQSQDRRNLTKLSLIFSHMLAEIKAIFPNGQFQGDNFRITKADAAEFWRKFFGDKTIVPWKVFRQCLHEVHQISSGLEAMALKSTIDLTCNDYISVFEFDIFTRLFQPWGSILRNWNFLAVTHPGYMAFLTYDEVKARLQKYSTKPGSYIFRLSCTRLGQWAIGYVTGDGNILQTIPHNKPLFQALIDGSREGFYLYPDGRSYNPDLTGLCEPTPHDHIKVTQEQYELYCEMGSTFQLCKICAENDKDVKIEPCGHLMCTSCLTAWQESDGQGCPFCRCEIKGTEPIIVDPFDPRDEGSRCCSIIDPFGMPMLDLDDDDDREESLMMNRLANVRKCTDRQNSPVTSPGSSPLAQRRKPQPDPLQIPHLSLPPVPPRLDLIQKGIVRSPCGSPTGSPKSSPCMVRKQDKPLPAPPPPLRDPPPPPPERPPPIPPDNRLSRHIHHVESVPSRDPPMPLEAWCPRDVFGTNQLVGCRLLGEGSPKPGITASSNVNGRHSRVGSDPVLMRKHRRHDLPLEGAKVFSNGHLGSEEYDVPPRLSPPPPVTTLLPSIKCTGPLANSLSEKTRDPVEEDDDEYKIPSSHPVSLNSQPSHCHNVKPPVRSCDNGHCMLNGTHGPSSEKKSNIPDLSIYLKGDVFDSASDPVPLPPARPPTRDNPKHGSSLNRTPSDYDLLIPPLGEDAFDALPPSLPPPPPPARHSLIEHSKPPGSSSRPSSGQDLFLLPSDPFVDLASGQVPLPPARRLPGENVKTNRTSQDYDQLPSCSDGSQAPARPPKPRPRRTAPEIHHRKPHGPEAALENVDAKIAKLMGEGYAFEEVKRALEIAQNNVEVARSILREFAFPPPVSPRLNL

Turning to `CCN(Cc1cc2c(C(F)(F)F)cn(-c3cccc(C4(c5nncn5C)CCC4)c3)c(=O)c2[nH]1)C(C)C` [Compound T019, 2-[[ethyl(isopropyl)amino]methyl]-6-[3-[1-(4-methyl-1,2,4-triazol-3-yl)cyclobutyl]phenyl]-4-(trifluoromethyl)-1H-pyrrolo[2,3-c]pyridin-7-one], in test [1], the “IL-2 CFC=5/nM” value was less than 500 nM. At CBL-B protein, the Ki is less than 50 nM.
The corresponding values for `Cn1cnnc1C1(c2cccc(-n3cc(C(F)(F)F)c4cc(CN5CCC6(CC6)C5)[nH]c4c3=O)c2)CCC1` [Compound T023, 2-(5-azaspiro[2.4]heptan-5-ylmethyl)-6-[3-[1-(4-methyl-1,2,4-triazol-3-yl)cyclobutyl]phenyl]-4-(trifluoromethyl)-1H-pyrrolo[2,3-c]pyridin-7-one] are less than 500 nM and less than 50 nM.
`Cn1cnnc1C1(c2cccc(-n3cc(C(F)(F)F)c4cc(CN5CC[C@H]6C[C@H]6C5)[nH]c4c3=O)c2)CCC1` [Compound T024, 2-[[(1R,6R)-3-azabicyclo[4.1.0]heptan-3-yl]methyl]-6-[3-[1-(4-methyl-1,2,4-triazol-3-yl)cyclobutyl]phenyl]-4-(trifluoromethyl)-1H-pyrrolo[2,3-c]pyridin-7-one]: the “IL-2 CFC=5/nM” value in test [1] was less than 500 nM. The compound further yielded a Ki at CBL-B protein of less than 50 nM.
Taken in the same sequence, the figures for `Cn1cnnc1C1(c2cccc(-n3cc(C(F)(F)F)c4cc(CN5CC[C@@H]6C[C@@H]6C5)[nH]c4c3=O)c2)CCC1` [Compound T025, 2-[[(1 S,6S)-3-azabicyclo[4.1.0]heptan-3-yl]methyl]-6-[3-[1-(4-methyl-1,2,4-triazol-3-yl)cyclobutyl]phenyl]-4-(trifluoromethyl)-1H-pyrrolo[2,3-c]pyridin-7-one] were less than 500 nM and less than 50 nM.
For `Cn1cnnc1C1(c2cccc(-n3cc(C(F)(F)F)c4cc(CN5CCC[C@H]6C[C@H]65)[nH]c4c3=O)c2)CCC1` [Compound T026, 2-(((1R,6S)-2-azabicyclo [4.1.0]heptan-2-yl)methyl)-6-(3-(1-(4-methyl-4H-1,2,4-triazol-3-yl)cyclobutyl)phenyl)-4-(trifluoromethyl)-1,6-dihydro-7H-pyrrolo[2,3-c]pyridin-7-one], the “IL-2 CFC=5/nM” value in test [1] was less than 500 nM. The inhibitory constant (Ki) at CBL-B protein was less than 50 nM.
The corresponding values for `Cn1cnnc1C1(c2cccc(-n3cc(C(F)(F)F)c4cc(CN5CCC[C@@H]6C[C@@H]65)[nH]c4c3=O)c2)CCC1` [Compound T027, 2-(((1 S,6R)-2-azabicyclo [4.1.0]heptan-2-yl)methyl)-6-(3-(1-(4-methyl-4H-1,2,4-triazol-3-yl)cyclobutyl)phenyl)-4-(trifluoromethyl)-1,6-dihydro-7H-pyrrolo[2,3-c]pyridin-7-one] are less than 500 nM and less than 50 nM.
The corresponding values for `Cn1cnnc1[C@]1(c2cccc(-n3cc(C(F)(F)F)c4cc(CN5CC6CC6C5)[nH]c4c3=O)c2)C[C@H](C)C1` (stereo partly shown) [Compound T028, 2-((3-azabicyclo[3.1.0]hexan-3-yl)methyl)-6-(3-((1s,3s)-3-methyl-1-(4-methyl-4H-1,2,4-triazol-3-yl)cyclobutyl)phenyl)-4-(trifluoromethyl)-1,6-dihydro-7H-pyrrolo[2,3-c]pyridin-7-one] are less than 500 nM and less than 50 nM.
Regarding `CCCN(Cc1cc2c(C(F)(F)F)cn(-c3cccc([C@]4(c5nncn5C)C[C@@H](C)C4)c3)c(=O)c2[nH]1)C(C)C` [Compound T029, 2-((isopropyl(propyl)amino)methyl)-6-(3-((1s,3s)-3-methyl-1-(4-methyl-4H-1,2,4-triazol-3-yl)cyclobutyl)phenyl)-4-(trifluoromethyl)-1,6-dihydro-7H-pyrrolo[2,3-c]pyridin-7-one], the “IL-2 CFC=5/nM” value in test [1] is on record as less than 500 nM. The compound further registered an inhibitory constant (Ki) on CBL-B protein of less than 50 nM.

For orientation: Ki means the dissociation constant of the complex between target and ligand, obtained from inhibition or displacement. The low end stands for a stronger hold on the target, the high end for a looser hold on the target.
